Like-named read-outs stand apart in the source and are kept apart here.
Legend:
[1] = In vitro cytotoxic activity, 7-AAD flow cytometry, Hek293; format: cell-based; settings: human, HEK293 cells, conditionally normal line, 24 h incubation, mean ± SD
From the text: (§1) The investigation focused on the assessment of the synthesized compounds’ toxicities, utilizing a panel of six diverse cell lines. The selection of cells was based on the specific features of their metabolism, namely, Jurkat, K562, U937, and HL60 cells are suspension cultures of oncohematologic origin, and HEK293 is a conditionally normal line transformed by adenovirus and often used as control cells along with fibroblasts. The normal fibroblast line (Wi-38) utilized in the experiment was diploid and was obtained from the lung tissue of an aborted fetus. The total cytotoxic activity of 16 compounds was studied using flow cytometry.
(§2) Human cancer cell lines, including Jurkat, K562, U937, HL60, and fibroblasts (Wi-38), were obtained from the European Authentic Cell Culture Collection and further cultured according to established standard protocols using sterile methods. The cells were cultivated in RPMI 1640 (for Jurkat and K562) and DMEM (for Wi-38 and HEK293) media (Gibco, Billings, MT, USA), with the addition of […] glutamine, 10% FBS (Sigma, Kanagawa, Japan), and 100 U/mL penicillin–streptomycin (Sigma). All cell types were cultivated in a humidified atmosphere containing 5% CO₂ at a temperature of 37 °C. Subculturing was performed at two- to three-day intervals. The cells were subsequently seeded into 24-well plates at a density of 5 × 10^4 cells per well and incubated overnight. Subsequent subculturing was then performed at two-day intervals, with a seeding density of 1 × 10^5 cells per 24-well plate, using RPMI medium with 10% FBS [49].
(§3) The dissolution of the compounds tested was initially performed in dimethyl sulfoxide (DMSO) with an initial solution of 100 mM in 10% DMSO. Subsequently, the solution was diluted in a complete culture medium, namely, Dulbecco’s medium, modified Eagle’s medium (DMEM), or Roswell Park Memorial Institute medium (RPMI). Substances were added at concentrations of 10, 1, 100, 10, 1, and 0.1 μM on the day after seeding and incubated for 24 h. Following this, the cells were washed with a phosphate-buffered saline (PBS) solution and stained with 7AAD dye, as per the manufacturer’s protocol for flow cytometry. The CC50 value, which characterizes the parameters of toxicity (i.e., the concentration of the compound required for 50% inhibition of cell viability in vitro), was calculated. logC versus % inhibition was plotted, and statistical data processing was performed using Excel and GraphPad Prism v.8.0.2 (San Diego, CA, USA, 2019). The data obtained from three independent experiments were expressed as the mean of three measurements for each concentration, with the standard deviation indicated as well. These values were then relative to the control values (0.1% DMSO), which were taken as 100%.
(§4) 7-AAD (7-aminoactinomycin D) dye (eBioscience™, San Diego, CA, USA) was used to assess cell viability. Following incubation with the test compounds, the cells were harvested, washed with a phosphate–salt buffer (PBS), and subjected to centrifugation at 400× g for five minutes. The cell sediment was resuspended in 200 μL of staining buffer for flow cytometry (PBS without calcium and magnesium, 2.5% FBS) and stained with a 1 mM 7-AAD dye solution for 15 min in the dark at room temperature. Subsequently, all samples, including experimental and control groups, were analyzed using a BD FACSAria™ III Cell Sorter flow cytometer (Milpitas, CA, USA).

Jurkat = assay: In vitro cytotoxic activity, 7-AAD flow cytometry, Jurkat; format: cell-based, Human; settings: Homo sapiens, Jurkat, 24 h, 24 h incubation, mean ± SD, triplicate
From the text: as §1, §2, §3, §4

HL60 = assay: In vitro cytotoxic activity, 7-AAD flow cytometry, HL60; format: cell-based; settings: Homo sapiens, HL-60, 24 h incubation, mean ± SD, triplicate
From the text: as §1, §2, §3, §4

K562 = assay: In vitro cytotoxic activity, 7-AAD flow cytometry, K562; format: cell-based, Human; settings: Homo sapiens, K562, 24 h, 24 h incubation, mean ± SD, triplicate
From the text: as §1, §2, §3, §4

[2] = In vitro cytotoxic activity, 7-AAD flow cytometry, normal fibroblasts; format: cell-based; settings: human, Wi-38 normal lung fibroblasts, normal fibroblasts Wi-38, 24 h incubation, mean ± SD, read-out: Fibrobl. (CC50)
From the text: as §1, §2, §3, §4

U937 = assay: In vitro cytotoxic activity, 7-AAD flow cytometry, U937; format: cell-based, Human; settings: 24 h incubation, mean ± SD, triplicate
From the text: as §1, §2, §3, §4

[3] = tested on: Jurkat, K562, U937, HEK293, and HeLa cell cultures; settings: cited from earlier work
Jurkat cells [4] = assay: Mitodamage assay (MitoSense Red, Annexin V-CF488A, 7-AAD); format: cell-based, Human; settings: compound at CC50 concentration, four hours, MitoSense Red
Experimental: To this end, MitoSense Red, a fluorescent dye that accumulates predominantly in mitochondria and responds to changes in membrane potential, was utilized. […] Two dyes commonly employed for detecting apoptosis in cells are annexin V and 7AAD. […] Therefore, the dissipation of mitochondrial membrane potential and the associated apoptosis process in Jurkat tumor cells were analyzed in response to exposure to synthesized macrodiolides. MitoSense Red, Annexin V-CF488A, and 7-AAD were used as dyes for this analysis (see Figure 3). A flow cytometry kit (FlowCellect™ MitoDamage Kit from Millipore, Hayward, CA USA) was utilized, as it facilitates a multiparametric evaluation of three markers of cell health. These markers include changes in mitochondrial potential (early apoptosis and cell stress), phosphatidylserine expression on the cell surface (late apoptosis), and membrane permeability (cell death). The method of the simultaneous detection of mitochondrial damage was performed according to the well-known technique.  Figure 3 Detection changes in mitochondrial membrane potential (ΔΨ) and coupled early and late apoptosis in Jurkat cells treated with compounds 9d, 8d, 7d, and 6d. Staurosporine and carbonyl cyanide-m-chlorophenylhydrazone were utilized as control compounds. The addition of all the tested compounds was executed at the CC50 concentration (refer to the provided table for the cytotoxicities of the synthesized compounds). The staining of cells was conducted using MitoSense Red, Annexin V-CF488A, and 7-AAD. The incubation period lasted for a duration of four hours. The presence of three *** (p < 0.001) and two asterisks ** (p < 0.005) indicates the significance of the observed differences between the values obtained in the control sample and the samples treated with the synthesized substances (comparison was performed by one-way ANOVA). All experiments were performed in triplicate.

Jurkat cells [5] = assay: Cytochrome C assay (flow cytometry); format: cell-based, Human; settings: compound at CC50 concentration, 6 h (Figure 4; method says four hours)
From the text: The quantification of cytochrome c release from the mitochondria in apoptotic cells was used to detect the mitochondrial pathway of apoptosis in the cells by flow cytometry. This study employed a direct labeling method that utilized an anti-cytochrome cFITC antibody, an anti-IgG1-FITC isotype control, and optimized fixation, permeabilization, and blocking buffers to detect cytochrome c by flow cytometry (Luminex®, Austin, TX, USA). […] The Jurkat cells were exposed to test substances at concentrations corresponding to their 24-h CC50 in these cells for a period of four hours. Thereafter, analysis by flow cytometry (NovoCyte Flow Cytometry™ Agilent, San Diego, CA, USA) was conducted. The acquired data were processed using NovoExpress® software (version 1.6.2) (ACEA (Agilent, Santa Clara, CA, USA)).
Figure 4 Detection of cytochrome c in Jurkat cells stained with a FlowCellect Cytochrome c Kit. The control compound, carbonyl cyanide m-chlorophenylhydrazone (CCCP), was administered at a concentration equal to its CC50 value. Compound 9d was added to the sample cells at a CC50 concentration (see the table of cell viability). The cells were incubated for 6 h. We compared the numerical values to determine the reliability of the differences observed between the control sample and the samples treated with the synthesized substances. […]

Row | Structure (SMILES) | CC50 at 24 h [1] [µM] | CC50 (Jurkat) [µM] | CC50 (HL60) [µM] | CC50 (K562) [µM] | CC50 at 24 h [2] [µM] | CC50 (U937; Homo sapiens, U-937, 24 h) [µM] | CC50 ([3]; K562, HEK293, and HeLa) [µM] | CC50 ([3]; individual cell cultures Jurkat, U937) [µM] | Jurkat cells with reduced mitochondrial membrane potential (Δψ dissipation) (Jurkat cells [4]) [%] | cells releasing cytochrome c into the cytoplasm (Cytochrome loss %) (Jurkat cells [5]) [%] | CC50 (U937) [µM]
1 | O=C1CC/C=C\CC/C=C\CCC(=O)OCCCCC/C=C\CC/C=C\CCCCCO1 [Compound 8a] | 0.0643 ± 0.00537 | 0.0253 ± 0.00263 | 0.0218 ± 0.00196 | 0.0223 ± 0.00216 | 0.0864 ± 0.00711 | 0.0234 ± 0.00227 |  |  |  |  | 
2 | O=C1CCCC/C=C\CC/C=C\CCCCC(=O)OCCCCC/C=C\CC/C=C\CCCCCO1 [Compound 8c] | 0.0473 ± 0.00422 | 0.0178 ± 0.00173 | 0.0147 ± 0.00142 | 0.0169 ± 0.00162 | 0.0648 ± 0.00635 | 0.0155 ± 0.00149 |  |  |  |  | 
3 | O=C1CCCCCC(=O)OCCCCCC/C=C\CC/C=C\CCCCCCO1 |  |  |  |  |  |  | 0.06 to 0.15 | 0.01 to 0.02 |  |  | 
4 | O=C1CCCCC/C=C\CC/C=C\CCCCCC(=O)OCCC/C=C\CC/C=C\CCCO1 [Compound 6d] | 0.0443 ± 0.00421 | 0.0185 ± 0.00178 | 0.0157 ± 0.00143 | 0.0169 ± 0.00188 | 0.0594 ± 0.00546 | 0.0152 ± 0.00156 |  |  | 58.99 |  | 
5 | O=C1CC/C=C\CC/C=C\CCC(=O)OCCCCCC/C=C\CC/C=C\CCCCCCO1 [Compound 9a] | 0.0549 ± 0.00537 | 0.0242 ± 0.00239 | 0.0202 ± 0.00217 | 0.0204 ± 0.00189 | 0.0799 ± 0.0069 | 0.0198 ± 0.00197 |  |  |  |  | 
6 | O=C1CCCCC/C=C\CC/C=C\CCCCCC(=O)OCCCC/C=C\CC/C=C\CCCCO1 [Compound 7d] | 0.0486 ± 0.00482 | 0.0181 ± 0.00191 | 0.0145 ± 0.00157 | 0.0171 ± 0.00184 | 0.0602 ± 0.00521 | 0.0151 ± 0.00143 |  |  | 69.26 |  | 
7 | N#CC(C#N)=NNc1cccc(Cl)c1 [CCCP, carbonyl cyanide-m-chlorophenylhydrazone, reference compound] |  |  |  |  |  |  |  |  |  | 79.35 | 
8 | O=C1CCCC/C=C\CC/C=C\CCCCC(=O)OCCCCCC/C=C\CC/C=C\CCCCCCO1 [Compound 9c] | 0.0492 ± 0.00477 | 0.0173 ± 0.00159 | 0.0128 ± 0.00137 | 0.0147 ± 0.00149 | 0.0594 ± 0.00529 | 0.0131 ± 0.00131 |  |  |  |  | 
9 | O=C1CCC/C=C\CC/C=C\CCCC(=O)OCCCCC/C=C\CC/C=C\CCCCCO1 [Compound 8b] | 0.0482 ± 0.00434 | 0.021 ± 0.00234 | 0.0187 ± 0.00171 | 0.0192 ± 0.00179 | 0.0672 ± 0.00624 | 0.0179 ± 0.00183 |  |  |  |  | 
10 | O=C1CCC/C=C\CC/C=C\CCCC(=O)OCCCC/C=C\CC/C=C\CCCCO1 [Compound 7b] | 0.0531 ± 0.00496 | 0.0203 ± 0.00204 | 0.0182 ± 0.00176 | 0.0181 ± 0.00183 | 0.0626 ± 0.00594 | 0.0174 ± 0.00171 |  |  |  |  | 
11 | O=C1CC/C=C\CC/C=C\CCC(=O)OCCC/C=C\CC/C=C\CCCO1 [Compound 6a] | 0.0523 ± 0.00517 | 0.0283 ± 0.00265 | 0.0198 ± 0.00181 | 0.0248 ± 0.00237 | 0.0762 ± 0.00762 | 0.0231 ± 0.00211 |  |  |  |  | 
12 | O=C1CCC/C=C\CC/C=C\CCCC(=O)OCCC/C=C\CC/C=C\CCCO1 [Compound 6b] | 0.0462 ± 0.00375 | 0.0212 ± 0.00197 | 0.0204 ± 0.0021 | 0.0215 ± 0.00201 | 0.0619 ± 0.00627 | 0.0224 ± 0.00224 |  |  |  |  | 
13 | O=C1CCC/C=C\CC/C=C\CCCC(=O)OCCCCCC/C=C\CC/C=C\CCCCCCO1 [Compound 9b] | 0.052 ± 0.00543 | 0.0183 ± 0.00204 | 0.0156 ± 0.00149 | 0.0173 ± 0.00164 | 0.0616 ± 0.00592 | 0.0157 ± 0.00153 |  |  |  |  | 
14 | O=C1CCCC/C=C\CC/C=C\CCCCC(=O)OCCCC/C=C\CC/C=C\CCCCO1 [Compound 7c] | 0.0463 ± 0.00399 | 0.0184 ± 0.00186 | 0.0153 ± 0.00148 | 0.0167 ± 0.00159 | 0.0595 ± 0.00537 | 0.0173 ± 0.00162 |  |  |  |  | 
15 | O=C1CC/C=C\CC/C=C\CCC(=O)OCCCC/C=C\CC/C=C\CCCCO1 [Compound 7a] | 0.0499 ± 0.00483 | 0.0264 ± 0.00246 | 0.0204 ± 0.00207 | 0.0236 ± 0.00214 | 0.0672 ± 0.00639 | 0.0222 ± 0.00234 |  |  |  |  | 
16 | O=C1CCCC/C=C\CC/C=C\CCCCC(=O)OCCC/C=C\CC/C=C\CCCO1 [Compound 6c] | 0.0428 ± 0.00439 | 0.0221 ± 0.00214 | 0.0201 ± 0.00195 | 0.0197 ± 0.00163 | 0.0589 ± 0.00581 | 0.0192 ± 0.00187 |  |  |  |  | 
17 | O=C1CCCCC/C=C\CC/C=C\CCCCCC(=O)OCCCCC/C=C\CC/C=C\CCCCCO1 [Compound 8d] | 0.0511 ± 0.0056 | 0.0161 ± 0.00158 | 0.0111 ± 0.00139 | 0.0152 ± 0.00146 | 0.0637 ± 0.00607 | 0.0122 |  |  | 75.42 |  | 0.0122 ± 0.00137
